{"source": "paper PMC12797502", "about": "“Effects of emodepside on single-channel properties of Onchocerca volvulus SLO-1A (BK) potassium channels” (Parasites & Vectors, 2025)", "target": "T1, Ovo-SLO-1A (Onchocerca volvulus, UniProt A0A2K6W0E9)", "T1 construct": "T2A-linked GFP as transfection marker; homotetramer; Ala350 printed in S6 (natural residue)", "T1 sequence (A0A2K6W0E9 1-1119)": "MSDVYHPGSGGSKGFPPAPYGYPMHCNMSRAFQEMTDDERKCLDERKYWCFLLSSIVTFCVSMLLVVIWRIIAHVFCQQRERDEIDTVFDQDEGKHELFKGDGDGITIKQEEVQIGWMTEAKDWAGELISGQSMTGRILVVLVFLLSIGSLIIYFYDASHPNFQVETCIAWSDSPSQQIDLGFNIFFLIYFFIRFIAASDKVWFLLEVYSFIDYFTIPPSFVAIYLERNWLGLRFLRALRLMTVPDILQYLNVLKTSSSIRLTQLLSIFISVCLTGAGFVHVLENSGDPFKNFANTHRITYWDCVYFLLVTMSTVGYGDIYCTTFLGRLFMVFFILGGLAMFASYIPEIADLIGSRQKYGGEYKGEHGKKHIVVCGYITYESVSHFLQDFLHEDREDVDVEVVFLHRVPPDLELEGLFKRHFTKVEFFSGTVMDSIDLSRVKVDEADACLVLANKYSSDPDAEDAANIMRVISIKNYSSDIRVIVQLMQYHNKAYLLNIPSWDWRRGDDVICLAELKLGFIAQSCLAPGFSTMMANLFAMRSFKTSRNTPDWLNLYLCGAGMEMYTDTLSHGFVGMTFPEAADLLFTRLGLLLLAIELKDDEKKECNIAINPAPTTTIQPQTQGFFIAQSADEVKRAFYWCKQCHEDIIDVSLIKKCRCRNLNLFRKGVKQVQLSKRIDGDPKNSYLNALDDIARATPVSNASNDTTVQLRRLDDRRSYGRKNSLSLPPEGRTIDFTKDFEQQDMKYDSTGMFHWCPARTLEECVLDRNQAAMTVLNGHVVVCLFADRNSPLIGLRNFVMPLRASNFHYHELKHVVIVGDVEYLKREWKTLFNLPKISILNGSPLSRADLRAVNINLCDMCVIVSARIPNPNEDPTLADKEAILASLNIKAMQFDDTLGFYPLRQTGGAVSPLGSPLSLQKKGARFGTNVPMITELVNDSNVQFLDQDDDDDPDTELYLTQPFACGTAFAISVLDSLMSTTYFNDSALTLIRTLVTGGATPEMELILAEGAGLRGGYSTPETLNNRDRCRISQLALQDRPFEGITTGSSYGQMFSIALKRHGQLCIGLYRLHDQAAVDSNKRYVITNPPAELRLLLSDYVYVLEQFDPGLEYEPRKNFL", "test": "inside-out and whole-cell patch clamp, transfected HEK293 cells", "assay_type": "biochemical", "settings": "activator; 0.3 µM (inside-out, +20 mV, 100 µM free Ca2+, bath pH 7.2) or 1 µM (whole-cell, +20 mV); room temperature; empty-vector control", "data": [{"smiles": "CC(C)C[C@H]1C(=O)O[C@H](Cc2ccc(N3CCOCC3)cc2)C(=O)N(C)[C@@H](CC(C)C)C(=O)O[C@H](C)C(=O)N(C)[C@@H](CC(C)C)C(=O)O[C@H](Cc2ccc(N3CCOCC3)cc2)C(=O)N(C)[C@@H](CC(C)C)C(=O)O[C@H](C)C(=O)N1C", "note": "[Emodepside]", "values": [{"measurement": "inside-out and whole-cell patch clamp, transfected HEK293 cells", "result": "The probability of the channel being open, Popen, significantly increased"}]}]}
